Assay results from ChEMBL document CHEMBL5338725, “New Glucosamine-Based TLR4 Agonists: Design, Synthesis, Mechanism of Action, and In Vivo Activity as Vaccine Adjuvants” (J Med Chem, 2023).
Blank lines part the entries; values can stand above or below the compound they belong to. Activity calls are given as the source filed them. The calls are words filed in the database; no cut-off is given here.

Columns and labels:
[1] = target: Toll-like receptor 4 (Homo sapiens) (UniProt O00206); assay: Agonist activity at human TLR4 in HEK-Blue hTLR4 cells at 0.1 to 25 uM incubated for 18 hrs by SEAP reporter gene based Quanti-blue assay; assay type: cell-based; conditions: filed as agonist, dose 0.1-25 µM
[2] = Cytotoxicity against PMA-differentiated human THP1-Xblue cells assessed as reduction in cell viability at 0.1 to 25 uM incubated for 18 hrs by MTT assay; assay type: toxicity, cell-based; conditions: dose 0.1-25 µM
THP1-Xblue [3] = assay: Activation of NF-KappaB/AP-1 signalling pathway in PMA-differentiated human THP-1 X-blue cells assessed as induction of SEAP release at 0.1 to 25 uM incubated for 18 hrs by QUANTI-Blue assay; assay type: cell-based; conditions: dose 0.1-25 µM
[4] = target: Toll-like receptor 4 (Homo sapiens) (UniProt O00206); assay: Agonist activity at TLR4 in human PBMC assessed as induction of IL-1beta production incubated for 6 hrs by ELISA method; assay type: cell-based; conditions: filed as agonist, dose 10-25 µM
Mus musculus [5] = assay: Immuno-adjuvant activity in OVA immunized C57BL/6J mouse model assessed as increase in anti-OVA IgG antibody at 10 ug, sc administered on day 0 and as booster dose on day 21 and measured on day 42 by ELISA; assay type: functional, organism-based; conditions: dose 10.0 µg
THP1-Xblue [6] = assay: Activation of NF-kappaB pathway in PMA-differentiated human THP1-Xblue cells assessed p65 translocation from cytosol to nucleus at 25 uM incubated for 4 hrs by immunofluorescence analysis; assay type: cell-based
[7] = target: Toll-like receptor 4 (Homo sapiens) (UniProt O00206); assay: Activation of TLR4 in PMA-differentiated human THP1-Xblue cells assessed as induction of IL-1beta release at 25 uM by incubated for 6 hrs ELISA method; assay type: cell-based; conditions: filed as activator
[8] = target: NACHT, LRR and PYD domains-containing protein 3 (Homo sapiens) (UniProt Q96P20); assay: Activation of NLRP3 inflammasome in PMA-differentiated human THP1-Xblue cells assessed as IL-1beta production at 25 uM preincubated for 1 hr with MCC950 followed by compound addition and measured after 6 hrs by ELISA method; assay type: cell-based
Mus musculus [9] = assay: Immuno-adjuvant activity in OVA immunized C57BL/6J mouse model assessed as increase in anti-OVA IgG2b antibody at 10 ug, sc administered on day 0 and as booster dose on day 21 and measured after 42 days by ELISA; assay type: functional, organism-based; conditions: dose 10.0 µg, time 42.0 day
[10] = target: Toll-like receptor 4 (Homo sapiens) (UniProt O00206); assay: Activation of TLR4 in PMA-differentiated human THP1-Xblue cells assessed as induction of TNFalpha release at 25 uM incubated for 6 hrs by ELISA method; assay type: cell-based; conditions: filed as activator
[11] = target: Toll-like receptor 4 (Homo sapiens) (UniProt O00206); assay: Activation of TLR4 in PMA-differentiated human THP1-Xblue cells assessed as induction of IL-1beta release incubated for 6 hrs by ELISA method; assay type: cell-based; conditions: filed as activator, dose 0.1-25 µM
[12] = target: MAP kinase p38 (Homo sapiens) (UniProt O15264+Q15759+Q16539+P53778); assay: Activation of p38 MAPK phosphorylation in PMA-differentiated human THP1-Xblue cells at 25 uM incubated for 1.5 to 2.5 hrs by Western blot analysis; assay type: cell-based; conditions: filed as activator, time 1.5-2.5 hrs
RAW-Blue = assay: Activation of NF-kappaB/AP-1 transcriptional activity in mouse RAW-Blue cells at 0.1 uM incubated for 18 hrs by quanti-blue/SEAP-based spectrophotometry analysis; assay type: cell-based; conditions: filed as activator
THP1-Xblue [13] = assay: Activation of NF-kappaB/AP-1 transcriptional activity in human THP1-Xblue cells at 10 uM incubated for 18 hrs by quanti-blue/SEAP-based spectrophotometry analysis; assay type: cell-based; conditions: filed as activator
[14] = target: Toll-like receptor 4 (Homo sapiens) (UniProt O00206); assay: Agonist activity at TLR4 in human PBMC assessed as induction of TNF production incubated for 6 hrs by ELISA method; assay type: cell-based; conditions: filed as agonist, dose 10-25 µM
PBMC = assay: Cytotoxicity against human PBMC cells assessed as reduction in cell viability at 0.1 to 25 uM incubated for 18 hrs by MTT assay; assay type: toxicity, cell-based; conditions: dose 0.1-25 µM
Mus musculus [15] = assay: Immuno-adjuvant activity in OVA immunized C57BL/6J mouse model assessed as increase in anti-OVA IgG1 antibody at 10 ug, sc administered on day 0 and as booster dose on day 21 and measured after 42 days by ELISA; assay type: functional, organism-based; conditions: dose 10.0 µg, time 42.0 day
THP1-Xblue [16] = assay: Activation of […] in PMA-differentiated human THP1-Xblue cells assessed as p-IRF3 translocation from cytosol to nucleus at 25 uM measured after 2 to 4 hrs by immunofluorescence analysis; assay type: cell-based; conditions: time 2-4 hrs
Mus musculus [17] = assay: Immuno-adjuvant activity in OVA immunized C57BL/6J mouse model assessed as anti-OVA […] antibody production at 10 ug, sc administered on day 0 and as booster dose on day 21 and measured after 42 days by ELISA; assay type: functional, organism-based; conditions: dose 10.0 µg, time 42.0 day
[18] = target: Toll-like receptor 4 (Homo sapiens) (UniProt O00206); assay: Activation of TLR4 in PMA-differentiated human THP1-Xblue cells assessed as induction of IL-6 secretion at 0.1 to 25 uM by incubated for 6 hrs ELISA method; assay type: cell-based; conditions: dose 0.1-25 µM
Mus musculus [19] = assay: Immuno-adjuvant activity in OVA immunized C57BL/6J mouse model assessed as increase in anti-OVA IgG2c antibody at 10 ug, sc administered on day 0 and as booster dose on day 21 and measured after 42 days by ELISA; assay type: functional, organism-based; conditions: dose 10.0 µg, time 42.0 day
HEK-Blue hTLR4 = assay: Agonist activity at human TLR4 in HEK-Blue hTLR4 cells at 100 ng/ml incubated for 18 hrs by SEAP reporter gene based Quanti-blue assay; assay type: cell-based; conditions: filed as agonist

Sequence of Toll-like receptor 4 (Homo sapiens) (O00206 whole entry, the tested form may be a part): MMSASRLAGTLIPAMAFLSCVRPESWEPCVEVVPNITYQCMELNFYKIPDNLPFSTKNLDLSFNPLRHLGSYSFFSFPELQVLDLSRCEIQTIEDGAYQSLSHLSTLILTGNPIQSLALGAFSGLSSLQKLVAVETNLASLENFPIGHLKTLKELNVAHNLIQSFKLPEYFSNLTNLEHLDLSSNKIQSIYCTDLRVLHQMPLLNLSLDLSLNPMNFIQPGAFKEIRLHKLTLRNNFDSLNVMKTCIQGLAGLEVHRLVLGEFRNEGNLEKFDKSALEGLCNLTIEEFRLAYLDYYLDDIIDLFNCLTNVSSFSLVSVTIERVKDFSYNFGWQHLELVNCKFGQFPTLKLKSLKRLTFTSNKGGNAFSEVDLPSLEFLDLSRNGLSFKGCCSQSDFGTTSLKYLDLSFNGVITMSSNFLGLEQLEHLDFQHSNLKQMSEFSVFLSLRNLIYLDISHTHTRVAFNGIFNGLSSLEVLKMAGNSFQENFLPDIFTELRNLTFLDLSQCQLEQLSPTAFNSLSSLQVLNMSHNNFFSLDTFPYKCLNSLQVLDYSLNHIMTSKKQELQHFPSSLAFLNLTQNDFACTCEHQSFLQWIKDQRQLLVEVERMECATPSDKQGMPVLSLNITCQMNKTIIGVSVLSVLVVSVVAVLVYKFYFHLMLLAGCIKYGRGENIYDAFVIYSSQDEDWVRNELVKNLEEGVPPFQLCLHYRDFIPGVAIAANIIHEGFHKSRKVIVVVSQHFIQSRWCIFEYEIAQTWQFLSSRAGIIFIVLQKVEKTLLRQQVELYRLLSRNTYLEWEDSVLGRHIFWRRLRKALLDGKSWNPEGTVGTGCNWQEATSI
Sequence of NACHT, LRR and PYD domains-containing protein 3 (Homo sapiens) (Q96P20 whole entry, the tested form may be a part): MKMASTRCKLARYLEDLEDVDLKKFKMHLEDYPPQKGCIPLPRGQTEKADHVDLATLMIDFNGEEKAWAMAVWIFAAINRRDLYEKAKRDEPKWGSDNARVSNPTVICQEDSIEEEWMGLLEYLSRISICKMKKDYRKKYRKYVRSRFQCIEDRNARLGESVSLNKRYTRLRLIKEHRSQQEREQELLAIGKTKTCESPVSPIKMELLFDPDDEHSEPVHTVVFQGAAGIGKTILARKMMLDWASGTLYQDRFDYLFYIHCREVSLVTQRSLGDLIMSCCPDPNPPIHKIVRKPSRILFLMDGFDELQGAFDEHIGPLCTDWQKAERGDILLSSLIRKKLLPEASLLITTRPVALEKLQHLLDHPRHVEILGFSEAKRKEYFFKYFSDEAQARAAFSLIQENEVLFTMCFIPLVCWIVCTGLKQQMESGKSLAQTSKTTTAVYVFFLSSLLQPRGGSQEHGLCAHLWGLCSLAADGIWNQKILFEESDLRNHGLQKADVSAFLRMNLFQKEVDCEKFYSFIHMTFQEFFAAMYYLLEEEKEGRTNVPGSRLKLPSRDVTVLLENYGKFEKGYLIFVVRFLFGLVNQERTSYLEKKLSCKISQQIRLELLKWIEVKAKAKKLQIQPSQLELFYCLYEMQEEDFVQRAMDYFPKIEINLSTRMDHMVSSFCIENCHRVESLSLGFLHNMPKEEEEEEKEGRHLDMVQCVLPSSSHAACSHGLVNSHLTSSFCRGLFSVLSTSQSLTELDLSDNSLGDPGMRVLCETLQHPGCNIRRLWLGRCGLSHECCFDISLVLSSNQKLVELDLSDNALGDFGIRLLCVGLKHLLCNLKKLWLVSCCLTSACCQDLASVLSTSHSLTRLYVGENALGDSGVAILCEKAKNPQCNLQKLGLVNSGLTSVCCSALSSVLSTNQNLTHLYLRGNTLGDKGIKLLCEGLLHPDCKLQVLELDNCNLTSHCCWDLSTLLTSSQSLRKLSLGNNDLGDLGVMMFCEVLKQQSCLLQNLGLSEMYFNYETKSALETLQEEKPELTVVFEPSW

SMILES: CCCCCCCCCCCC(=O)N[C@H]1[C@@H](OC(=O)CCCCCCCCCCC)O[C@H](CO)[C@@H](OP(=O)(O)O)[C@@H]1OC(=O)CCCCCCCCCCC
Activity (THP1-Xblue [3]): inactive

SMILES: CCCCCCCCCCCC(=O)N[C@H]1[C@@H](OP(=O)(O)O)O[C@H](CO)[C@@H](OC(=O)CCCCCCCCCCC)[C@@H]1OC(=O)CCCCCCCCCCC
Activity (Mus musculus [19]): inactive | Activity (Mus musculus [9]): inactive | Activity (Mus musculus [15]): inactive | Activity (Mus musculus [17]): inactive

SMILES: CCCCCCCCCCCCCC(=O)O[C@H](CCCCCCCCCCC)CC(=O)N[C@H]1[C@H](OC[C@H]2O[C@H](O)[C@H](NC(=O)C[C@H](O)CCCCCCCCCCC)[C@@H](OC(=O)C[C@H](O)CCCCCCCCCCC)[C@@H]2O)O[C@H](CO)[C@@H](OP(=O)(O)O)[C@@H]1OC(=O)C[C@@H](CCCCCCCCCCC)OC(=O)CCCCCCCCCCCCC
Activity (Mus musculus [19]): Active | Activity (HEK-Blue hTLR4): Active | Activity (Mus musculus [9]): inactive

SMILES: CCCCCCCCCCCCCC(=O)N[C@H]1[C@H](OC(=O)CCCCCCCCCCCCC)O[C@H](CO)[C@@H](OP(=O)([O-])[O-])[C@@H]1OC(=O)CCCCCCCCCCCCC.[Na+].[Na+]
Activity [1]: Active | Activity [2]: Non-Toxic

Continued, in another order:

Activity [1]: Active
SMILES: CCCCCCCCCCCC(=O)N[C@H]1[C@H](OC(=O)CCCCCCCCC)O[C@H](CO)[C@@H](OP(=O)([O-])[O-])[C@@H]1OC(=O)CCCCCCCCC.[Na+].[Na+]
Activity [2]: Non-Toxic

Activity [4]: Dose-Dependent Effect | Activity [7]: Active | Activity [8]: inactive | Activity [10]: Active | Activity [11]: Dose-Dependent Effect | Activity [12]: Active | Activity [14]: Dose-Dependent Effect | Activity [18]: inactive | Activity [1]: Active
SMILES: CCCCCCCCCCCC(=O)N[C@H]1[C@H](OC(=O)CCCCCCCCCCC)O[C@H](CO)[C@@H](OP(=O)([O-])[O-])[C@@H]1OC(=O)CCCCCCCCCCC.[Na+].[Na+]
Activity (Mus musculus [5]): Active | Activity (THP1-Xblue [6]): inactive | Activity (Mus musculus [9]): inactive | Activity (RAW-Blue): Active | Activity (THP1-Xblue [13]): Active | Activity (PBMC): Non-Toxic | Activity (Mus musculus [15]): Active | Activity (THP1-Xblue [16]): inactive | Activity (Mus musculus [17]): inactive

Activity [4]: Dose-Dependent Effect | Activity [10]: Active | Activity [11]: Dose-Dependent Effect | Activity [14]: Dose-Dependent Effect | Activity [18]: inactive | Activity [1]: Active
SMILES: CCCCCCCCCCCCCC(=O)O[C@@H]1O[C@H](CO)[C@@H](OP(=O)([O-])[O-])[C@H](OC(=O)CCCCCCCCCCCCC)[C@H]1NC(=O)CCCCCCCCCCC.[Na+].[Na+]
Activity (PBMC): Non-Toxic | Activity [2]: Non-Toxic
